# Laboratory results as given in article PMC4143292, “An Enzymatic Platform for the Synthesis of Isoprenoid Precursors” (PLoS ONE, 2014).
# Target: T1, DPM-DC (diphosphomevalonate decarboxylase) (Streptococcus pneumoniae, UniProt A0A0H2UNP0)
# T1 construct: gene mvaD; N-terminal His9-GST tag removed with PreScission protease; expressed in E. coli BL21(DE3)
# T1 sequence (A0A0H2UNP0 1-317): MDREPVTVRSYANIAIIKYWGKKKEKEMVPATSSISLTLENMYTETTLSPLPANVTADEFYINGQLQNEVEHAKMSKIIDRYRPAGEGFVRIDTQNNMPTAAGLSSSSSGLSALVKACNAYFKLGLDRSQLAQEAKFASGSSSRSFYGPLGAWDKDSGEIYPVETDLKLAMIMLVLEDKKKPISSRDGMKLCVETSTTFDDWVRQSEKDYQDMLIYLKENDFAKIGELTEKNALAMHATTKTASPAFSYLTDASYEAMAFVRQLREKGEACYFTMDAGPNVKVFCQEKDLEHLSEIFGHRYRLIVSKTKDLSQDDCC
# Test: PK/LDH-coupled NADH oxidation
# Format: biochemical
# Conditions: ATP 2.0 mM, MgCl2 1.0 mM + nucleotide, KCl 50 mM, Hepes pH 8.0, 25 C
structure (smiles),measurement,value
C[C@@](O)(CCOP(=O)(O)OP(=O)(O)O)CC(=O)O [DPM],PK/LDH-coupled NADH oxidation,DPM formation was assayed by adding an aliquot the DPM-synthesis reaction into a DPM decarboxylase
